Legend:
[1] = Chemical stability assessment, 60/75 stress test, HPLC; format: physicochemical
Experimental: The chemical stability assessment was performed on crystalline Pattern B using a 60/75 stress test (The International Conference on Harmonisation of Technical Requirements for Registration of Pharmaceuticals for Human Use, Stability Testing of New Drug Substances and Products, Q1A(R2), 2003). Samples were exposed to 60° C./75% relative humidity condition for 2 weeks and post-stress materials were analyzed by HPLC. Data at time-zero was also collected for all samples and served as references. The following table summarizes stability data obtained (peak area % measured by HPLC) for crystalline Pattern B.

[2] = molecular target: β1 site of the 20S proteasome (Homo sapiens, UniProt P28072); details: at higher concentrations; cited from earlier work
kinases = details: panel of kinases; cited from earlier work
[3] = molecular target: β2 site of the 20S proteasome (Homo sapiens, UniProt Q99436); details: at higher concentrations; cited from earlier work
receptors = details: panel of receptors; cited from earlier work

| Structure (SMILES) | % at 1 wk (peak area % measured by HPLC) ([1]; 60° C./75% relative humidity, 1 wk) | % at 2 wk (peak area % measured by HPLC) ([1]; 60° C./75% relative humidity, 2 wk) | % at t0 (peak area % measured by HPLC) ([1]; time-zero reference) | inhibition of the activity of the β1 site [2] | IC50 (kinases) | inhibition of the activity of the β2 site [3] | IC50 (receptors) |
| --- | --- | --- | --- | --- | --- | --- | --- |
| CC(C)C[C@H](NC(=O)CNC(=O)c1cc(Cl)ccc1Cl)B1OB([C@H](CC(C)C)NC(=O)CNC(=O)c2cc(Cl)ccc2Cl)OB([C@H](CC(C)C)NC(=O)CNC(=O)c2cc(Cl)ccc2Cl)O1 [Crystalline Pattern B, N,N′,N″-[2,4,6-boroxintriyltris[[(1R)-3-methylbutylidene]imino(2-oxo-2,1-ethanediyl)]]tris(2,5-dichlorobenzamide)] | 94.2% | 79.5% | 99.3% |  |  |  |  |
| CC(C)C[C@H](NC(=O)CNC(=O)c1cc(Cl)ccc1Cl)B(O)O [Ixazomib, [(1R)-1-({[(2,5-dichlorobenzoyl)amino]acetyl}amino)-3-methylbutyl]boronic acid] |  |  |  | inhibits the activity | > 10 µM | inhibits the activity | > 10 µM |

From patent US10072029B2, “Crystalline form of a proteasome inhibitor” (Millennium Pharmaceuticals, Inc., priority 2015, dated 2018)
